According to patent US6852673B2, “Herbicidal pyridine compounds” (BASF Aktiengesellschaft, priority 1998, dated 2005):

How the values were obtained:
Assay type in all cases: in vivo
Glycine max (GLXMA) [1] = experiment: Pre-emergence herbicidal evaluation, soyabeans
Method in brief: (§1)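 Seeds planted in potting soil, then pots sprayed pre-emergence with aqueous acetone solution of test compound at about 0.0125 to 0.4 kg/ha. Kept under standard greenhouse care; injury rated 2 to 4 weeks after treatment.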

Oryza sativum (ORYSA) = experiment: Pre-emergence herbicidal evaluation, rice
Method in brief: as §1

[2] = test system: Triticum aestivum (TRZAW); experiment: Pre-emergence herbicidal evaluation, winter wheat
Method in brief: as §1

Zea mays (ZEAMX) [3] = experiment: Pre-emergence herbicidal evaluation, maize
Method in brief: as §1

[4] = test system: Abutilon theophrasti (ABUTH); experiment: Pre-emergence herbicidal evaluation, velvetleaf
Method in brief: as §1

[5] = test system: Ambrosia artemiisifolia (AMBEL); experiment: Pre-emergence herbicidal evaluation, ragweed
Method in brief: as §1

Galium aparine (GALAP) = experiment: Pre-emergence herbicidal evaluation, cleaver
Method in brief: as §1

Lamium purpureum (LAMPU) [6] = experiment: Pre-emergence herbicidal evaluation, purple deadnettle
Method in brief: as §1

Stellaria media (STEME) [7] = experiment: Pre-emergence herbicidal evaluation, chickweed
Method in brief: as §1

[8] = test system: Alopecurus myosuroides (ALOMY); experiment: Pre-emergence herbicidal evaluation, black grass
Method in brief: as §1

[9] = test system: Echinochloa grus galli (ECHCG); experiment: Pre-emergence herbicidal evaluation, barnyard grass
Method in brief: as §1

Setaria viridis (SETVI) [10] = experiment: Pre-emergence herbicidal evaluation, green foxtail
Method in brief: as §1

Glycine max (GLXMA) [11] = experiment: Post-emergence herbicidal evaluation, soyabeans; conditions: rated 2 to 4 weeks after treatment
Method in brief: (§2)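 Plants rated 0–9 (0 = growth as untreated control, 9 = death) 2 to 4 weeks after greenhouse post-emergence treatment. Formulations were water-diluted acetone solutions sprayed at doses equivalent to about 0.03 to 0.4 kg test compound per hectare per pot.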

Hordeum vulgare (HORVW) = experiment: Post-emergence herbicidal evaluation, winter barley; conditions: rated 2 to 4 weeks after treatment
Method in brief: as §2

[12] = test system: Triticum aestivum (TRZAW); experiment: Post-emergence herbicidal evaluation, winter wheat; conditions: rated 2 to 4 weeks after treatment
Method in brief: as §2

Zea mays (ZEAMX) [13] = experiment: Post-emergence herbicidal evaluation, maize; conditions: rated 2 to 4 weeks after treatment
Method in brief: as §2

[14] = test system: Ambrosia artemiisifolia (AMBEL); experiment: Post-emergence herbicidal evaluation, ragweed; conditions: rated 2 to 4 weeks after treatment
Method in brief: as §2

[15] = test system: Ipomoea hederacea (IPOHE); experiment: Post-emergence herbicidal evaluation, morning glory; conditions: rated 2 to 4 weeks after treatment
Method in brief: as §2

Lamium purpureum (LAMPU) [16] = experiment: Post-emergence herbicidal evaluation, purple deadnettle; conditions: rated 2 to 4 weeks after treatment
Method in brief: as §2

[17] = test system: Matricaria inodora (MATIN); experiment: Post-emergence herbicidal evaluation, mayweed; conditions: rated 2 to 4 weeks after treatment
Method in brief: as §2

Solanum nigrum (SOLNI) = experiment: Post-emergence herbicidal evaluation, black nightshade; conditions: rated 2 to 4 weeks after treatment
Method in brief: as §2

Stellaria media (STEME) [18] = experiment: Post-emergence herbicidal evaluation, chickweed; conditions: rated 2 to 4 weeks after treatment
Method in brief: as §2

[19] = test system: Alopecurus myosuroides (ALOMY); experiment: Post-emergence herbicidal evaluation, black grass; conditions: rated 2 to 4 weeks after treatment
Method in brief: as §2

[20] = test system: Digitaria sanguinalis (DIGSA); experiment: Post-emergence herbicidal evaluation, large crabgrass; conditions: rated 2 to 4 weeks after treatment
Method in brief: as §2

[21] = test system: Echinochloa grus galli (ECHCG); experiment: Post-emergence herbicidal evaluation, barnyard grass; conditions: rated 2 to 4 weeks after treatment
Method in brief: as §2

Setaria viridis (SETVI) [22] = experiment: Post-emergence herbicidal evaluation, green foxtail; conditions: rated 2 to 4 weeks after treatment
Method in brief: as §2

COc1cc(OCC(F)(F)C(F)F)nc(Oc2cc(C(F)(F)F)nn2C)c1 [Example 4, 2-(1-Methyl-3-trifluoromethylpyrazol-5-yloxy)-4-methoxy-6-(2,2,3,3-tetrafluoropropyloxy)pyridine]
GLXMA rating (Glycine max (GLXMA) [1]; dose 0.013 kg/ha): 1 (1 - Trace effect)
GLXMA rating (Glycine max (GLXMA) [1]; dose 0.025 kg/ha): 4 (4 - Injury)
GLXMA rating (Glycine max (GLXMA) [1]; dose 0.1 kg/ha): 6 (6 - Herbicidal effect)
GLXMA rating (Glycine max (GLXMA) [1]; dose 0.4 kg/ha): 8 (8 - Approaching complete kill)
ORYSA rating (Oryza sativum (ORYSA); dose 0.013 kg/ha): 1 (1 - Trace effect)
ORYSA rating (Oryza sativum (ORYSA); dose 0.025 kg/ha): 1 (1 - Trace effect)
ORYSA rating (Oryza sativum (ORYSA); dose 0.1 kg/ha): 2 (2 - Slight effect)
ORYSA rating (Oryza sativum (ORYSA); dose 0.4 kg/ha): 3 (3 - Moderate effect)
TRZAW rating ([2]; dose 0.013 kg/ha): 0 (0 - No effect)
TRZAW rating ([2]; dose 0.025 kg/ha): 0 (0 - No effect)
TRZAW rating ([2]; dose 0.1 kg/ha): 1 (1 - Trace effect)
TRZAW rating ([2]; dose 0.4 kg/ha): 4 (4 - Injury)
ZEAMX rating (Zea mays (ZEAMX) [3]; dose 0.013 kg/ha): 1 (1 - Trace effect)
ZEAMX rating (Zea mays (ZEAMX) [3]; dose 0.025 kg/ha): 1 (1 - Trace effect)
ZEAMX rating (Zea mays (ZEAMX) [3]; dose 0.1 kg/ha): 3 (3 - Moderate effect)
ZEAMX rating (Zea mays (ZEAMX) [3]; dose 0.4 kg/ha): 5 (5 - Definite injury)
ABUTH rating ([4]; dose 0.013 kg/ha): 3 (3 - Moderate effect)
ABUTH rating ([4]; dose 0.025 kg/ha): 5 (5 - Definite injury)
ABUTH rating ([4]; dose 0.1 kg/ha): 7 (7 - Good herbicidal effect)
ABUTH rating ([4]; dose 0.4 kg/ha): 9 (9 - Complete kill)
AMBEL rating ([5]; dose 0.013 kg/ha): 4 (4 - Injury)
AMBEL rating ([5]; dose 0.025 kg/ha): 9 (9 - Complete kill)
AMBEL rating ([5]; dose 0.1 kg/ha): 9 (9 - Complete kill)
AMBEL rating ([5]; dose 0.4 kg/ha): 9 (9 - Complete kill)
GALAP rating (Galium aparine (GALAP); dose 0.013 kg/ha): 1 (1 - Trace effect)
GALAP rating (Galium aparine (GALAP); dose 0.025 kg/ha): 3 (3 - Moderate effect)
GALAP rating (Galium aparine (GALAP); dose 0.1 kg/ha): 5 (5 - Definite injury)
GALAP rating (Galium aparine (GALAP); dose 0.4 kg/ha): 8 (8 - Approaching complete kill)
LAMPU rating (Lamium purpureum (LAMPU) [6]; dose 0.013 kg/ha): 8 (8 - Approaching complete kill)
LAMPU rating (Lamium purpureum (LAMPU) [6]; dose 0.025 kg/ha): 8 (8 - Approaching complete kill)
LAMPU rating (Lamium purpureum (LAMPU) [6]; dose 0.1 kg/ha): 9 (9 - Complete kill)
LAMPU rating (Lamium purpureum (LAMPU) [6]; dose 0.4 kg/ha): 9 (9 - Complete kill)
STEME rating (Stellaria media (STEME) [7]; dose 0.013 kg/ha): 4 (4 - Injury)
STEME rating (Stellaria media (STEME) [7]; dose 0.025 kg/ha): 6 (6 - Herbicidal effect)
STEME rating (Stellaria media (STEME) [7]; dose 0.1 kg/ha): 9 (9 - Complete kill)
STEME rating (Stellaria media (STEME) [7]; dose 0.4 kg/ha): 9 (9 - Complete kill)
ALOMY rating ([8]; dose 0.025 kg/ha): 3 (3 - Moderate effect)
ALOMY rating ([8]; dose 0.1 kg/ha): 8 (8 - Approaching complete kill)
ALOMY rating ([8]; dose 0.4 kg/ha): 8 (8 - Approaching complete kill)
ECHCG rating ([9]; dose 0.013 kg/ha): 3 (3 - Moderate effect)
ECHCG rating ([9]; dose 0.025 kg/ha): 5 (5 - Definite injury)
ECHCG rating ([9]; dose 0.1 kg/ha): 8 (8 - Approaching complete kill)
ECHCG rating ([9]; dose 0.4 kg/ha): 8 (8 - Approaching complete kill)
SETVI rating (Setaria viridis (SETVI) [10]; dose 0.013 kg/ha): 5 (5 - Definite injury)
SETVI rating (Setaria viridis (SETVI) [10]; dose 0.025 kg/ha): 8 (8 - Approaching complete kill)
SETVI rating (Setaria viridis (SETVI) [10]; dose 0.1 kg/ha): 9 (9 - Complete kill)
SETVI rating (Setaria viridis (SETVI) [10]; dose 0.4 kg/ha): 9 (9 - Complete kill)
GLXMA rating (Glycine max (GLXMA) [11]; dose 0.03 kg/ha): 5 (5 - Definite injury)
GLXMA rating (Glycine max (GLXMA) [11]; dose 0.1 kg/ha): 8 (8 - Approaching complete kill)
GLXMA rating (Glycine max (GLXMA) [11]; dose 0.4 kg/ha): 8 (8 - Approaching complete kill)
HORVW rating (Hordeum vulgare (HORVW); dose 0.03 kg/ha): 3 (3 - Moderate effect)
HORVW rating (Hordeum vulgare (HORVW); dose 0.1 kg/ha): 3 (3 - Moderate effect)
HORVW rating (Hordeum vulgare (HORVW); dose 0.4 kg/ha): 5 (5 - Definite injury)
TRZAW rating ([12]; dose 0.03 kg/ha): 2 (2 - Slight effect)
TRZAW rating ([12]; dose 0.1 kg/ha): 3 (3 - Moderate effect)
TRZAW rating ([12]; dose 0.4 kg/ha): 5 (5 - Definite injury)
ZEAMX rating (Zea mays (ZEAMX) [13]; dose 0.03 kg/ha): 2 (2 - Slight effect)
ZEAMX rating (Zea mays (ZEAMX) [13]; dose 0.1 kg/ha): 3 (3 - Moderate effect)
ZEAMX rating (Zea mays (ZEAMX) [13]; dose 0.4 kg/ha): 5 (5 - Definite injury)
AMBEL rating ([14]; dose 0.03 kg/ha): 3 (3 - Moderate effect)
AMBEL rating ([14]; dose 0.1 kg/ha): 6 (6 - Herbicidal effect)
AMBEL rating ([14]; dose 0.4 kg/ha): 7 (7 - Good herbicidal effect)
IPOHE rating ([15]; dose 0.03 kg/ha): 8 (8 - Approaching complete kill)
IPOHE rating ([15]; dose 0.1 kg/ha): 9 (9 - Complete kill)
IPOHE rating ([15]; dose 0.4 kg/ha): 9 (9 - Complete kill)
LAMPU rating (Lamium purpureum (LAMPU) [16]; dose 0.03 kg/ha): 7 (7 - Good herbicidal effect)
LAMPU rating (Lamium purpureum (LAMPU) [16]; dose 0.4 kg/ha): 8 (8 - Approaching complete kill)
MATIN rating ([17]; dose 0.03 kg/ha): 5 (5 - Definite injury)
MATIN rating ([17]; dose 0.1 kg/ha): 7 (7 - Good herbicidal effect)
MATIN rating ([17]; dose 0.4 kg/ha): 7 (7 - Good herbicidal effect)
SOLNI rating (Solanum nigrum (SOLNI); dose 0.03 kg/ha): 4 (4 - Injury)
SOLNI rating (Solanum nigrum (SOLNI); dose 0.1 kg/ha): 5 (5 - Definite injury)
SOLNI rating (Solanum nigrum (SOLNI); dose 0.4 kg/ha): 5 (5 - Definite injury)
STEME rating (Stellaria media (STEME) [18]; dose 0.03 kg/ha): 6 (6 - Herbicidal effect)
STEME rating (Stellaria media (STEME) [18]; dose 0.1 kg/ha): 6 (6 - Herbicidal effect)
STEME rating (Stellaria media (STEME) [18]; dose 0.4 kg/ha): 8 (8 - Approaching complete kill)
ALOMY rating ([19]; dose 0.03 kg/ha): 3 (3 - Moderate effect)
ALOMY rating ([19]; dose 0.1 kg/ha): 6 (6 - Herbicidal effect)
ALOMY rating ([19]; dose 0.4 kg/ha): 8 (8 - Approaching complete kill)
DIGSA rating ([20]; dose 0.03 kg/ha): 5 (5 - Definite injury)
DIGSA rating ([20]; dose 0.1 kg/ha): 7 (7 - Good herbicidal effect)
DIGSA rating ([20]; dose 0.4 kg/ha): 8 (8 - Approaching complete kill)
ECHCG rating ([21]; dose 0.03 kg/ha): 6 (6 - Herbicidal effect)
ECHCG rating ([21]; dose 0.1 kg/ha): 8 (8 - Approaching complete kill)
ECHCG rating ([21]; dose 0.4 kg/ha): 9 (9 - Complete kill)
SETVI rating (Setaria viridis (SETVI) [22]; dose 0.03 kg/ha): 6 (6 - Herbicidal effect)
SETVI rating (Setaria viridis (SETVI) [22]; dose 0.1 kg/ha): 8 (8 - Approaching complete kill)
SETVI rating (Setaria viridis (SETVI) [22]; dose 0.4 kg/ha): 9 (9 - Complete kill)
